Key:
[1] = tested on: global splicing (splice junction usage); experiment: RNA-seq differential splicing analysis in PHF5A WT or Y36C overexpressing cells; format: cell-based; settings: 100 nM
Protocol: Either PHF5A WT or Y36C mutant-overexpressing cells were treated with either DMSO or E7107 (100 nM and 10 μM) for 6 h in hexaplicate before lysed in TRIzol reagent (Thermo Fisher). After phase separation, the top aqueous phase was further processed using MagMAX-96 Total RNA Isolation Kit (Thermo Fisher, AM1830) for RNA extraction. RNA quality was assessed using Agilent tapestation with RNA screen tape. RNA-seq libraries were prepared by Beijing Genomic Institute (BGI) and sequenced on Illumina Hiseq 4,000 for 6G clean reads per sample. RNA-seq reads were aligned to hg19 by STAR[50] and raw junction counts generated by STAR were used for calculating PSI to quantify splice junction usage relative to all other splice junctions that share the same splice site as described before. Differential PSI were assessed between a pair of sample groups using moderated t-test defined in limma package[52] in Bioconductor. […]
The number of reads which cover the splice junction which excludes a given cassette exon (ES reads) are compared with both the number of spliced reads which share its 3′ splice site yet have an alternative 5′ splice site bordering the cassette exon (exon inclusion reads) and the number of reads which cross the exon–intron boundary at that same 3′ splice site (IR reads). […]

[2] = tested on: SF3B1 (R1074H); set-up: method as in PMID 21981285; settings: single amino acid substitution R1074H in SF3B1; cited from earlier work
[3] = tested on: splicing of SLC25A19, EIF4A1 and MCL1; experiment: Taqman gene expression assay (SLC25A19 mRNA, EIF4A1 pre-mRNA, MCL1 isoforms) in PHF5A WT or Y36C HCT116 cells; format: cell-based; settings: for induction of MCL1 ES and IR events: PHF5A WT cells, dose response, 4 h
Protocol: Eight thousand cells of indicated genotypes were seeded in each well of 96-well plate and allowed to settle overnight. On the second day, 11 pt serial dilution (1:4 fold dilution across) of indicated compound with a top dosage of 10 μM final was added to the culturing medium. Four hours post compound addition, culturing medium was decanted and washed once with PBS. PBS was then decanted completely from the plate and Lysis buffer (plus DNase I) from TaqMan Gene Expression Cells-to-CT Kit (Thermo Fisher, cat # AM1729) was added according to the manual. After 5 min incubation at RT on the shaker, stop solution was added to each well and incubated for 2 min. Reverse transcription was set up immediately using the Cells-to-CT Kit and cDNAs were used for quantitative real-time PCR analysis using Viia7 (Thermo Fisher). Each reaction is multiplexed with an FAM-labelled probe targeting specific target gene splicing isoforms and a VIC-labelled probe targeted 18S rRNA as loading control. Therefore, the FAM Ct value in each well was first normalized to the VIC Ct value in the same well before further normalization to the FAM/VIC ratio of DMSO-treated control samples to calculate fold change over DMSO. Graphs were generated using Graphpad Prism 6, n=2. Taqman gene expression probes used in these assays are listed in Supplementary Table 1.

[4] = tested on: HCT116 resistant clones (SF3B1-R1074H, SF3B1-V1078A/I, PHF5A-Y36C); experiment: 72 h growth inhibition profiling (CellTiter-Glo) of E7107- and herboxidiene-resistant HCT116 clones; format: cell-based; settings: HCT116 clones with SF3B1-R1074H, SF3B1-V1078 or PHF5A-Y36C; 72 h CellTiter-Glo
Protocol: In total, 2.5 million HCT116 cells were seeded in each 10 cm dish and treated with indicated dosages of splicing modulators for 2 weeks. Compounds were refreshed every 4 days. When needed, confluent dishes were split 1:3 and cells were allowed to recover overnight without splicing modulator treatment after re-seeding. At the end of the compound selection period, surviving individual clones were picked and transferred to 12-well plates. Individual resistant clones were further expanded without splicing modulator treatment and one million cells from each clone were pelleted for genomic DNA extraction using the DNeasy Blood & Tissue Kit from Qiagen. WXS libraries were generated by Novogene Corporation using Agilent SureSelect Human All Exon V6 kit and sequenced on Illumina HiSeq platform. 12G raw data were gathered for each sample. WXS reads were then aligned to hg19 by BWA-MEM[40] and somatic mutations were identified with MuTect2 (ref. [41]) through Sentieon pipeline[42] by pairing resistant clone with parental cell lines. As we selected the resistant clones for WXS, the allele frequencies for the mutations which are responsible for the resistance should be high. We focused on non-silent mutations (among the H3 curated spliceosome genes) with allele frequency higher than 0.2.
(§1) For CellTiter-Glo analysis, 500 cells were seeded in each well of a 384-well plate the day before compound addition. An 11 pt serial dilution was used starting with a top final dosage of 10 μM for 10 additional doses. DMSO percentage was maintained throughout and a DMSO-only control was included. Seventy-two hours post compound addition, CellTiter-Glo reagent was added to the medium, incubated and assayed on EnVision Multilabel Reader (PerkinElmer). The luminescence value from each treatment sample was normalized to the average value of the respective DMSO control. The dosage response curve plots were generated using Graphpad Prism 6 and fit using nonlinear regression analysis and the log(inhibitor) versus response—Variable slope (four parameters). For heatmap summarization of IC50 shifts, IC50 value was extracted from dosage response curves and the fold changes of IC50 values in PHF5A variants expressing lines over that of the WT lines were calculated and plotted using TIBCO Spotfire software. For IC50s greater than the top dosage, the values were arbitrarily set at 10 μM. Unsupervised clustering analysis was performed in TIBCO Spotfire using the following default parameters: Clustering method: UPGMA; Distance measure: Euclidean; Ordering weight: Average value; Normalization: (None); Empty value replacement: Constant value: 0.

[5] = tested on: PANC0504 cells; experiment: Growth inhibition of Panc0504 cells expressing PHF5A WT or Y36C; format: cell-based
Protocol: (§2) Parental HCT116 cells were obtained from ATCC and cultured in RPMI 1,640 medium (Thermo Fisher, GIBCO#11875) supplemented with 10% fetal bovine serum (FBS). Parental Panc0504 cells were obtained from ATCC and cultured in GIBCO RPMI 1,640 medium (Thermo Fisher, GIBCO#11875) supplemented with glucose (to 4.5 g l^−1 final), HEPES (10 mM final), sodium pyruvate (1 mM final), human insulin (10 μg ml^−1 final) and 15% FBS. Cell line authentication was achieved by genetic profiling using polymorphic short tandem repeat (STR) loci (ATCC). All cell lines were free of mycoplasma contamination. […]
(§3) For CellTiter-Glo analysis, 500 cells were seeded in each well of a 384-well plate the day before compound addition. […] Seventy-two hours post compound addition, CellTiter-Glo reagent was added to the medium, incubated and assayed on EnVision Multilabel Reader (PerkinElmer). The luminescence value from each treatment sample was normalized to the average value of the respective DMSO control. […] For heatmap summarization of IC50 shifts, IC50 value was extracted from dosage response curves and the fold changes of IC50 values in PHF5A variants expressing lines over that of the WT lines were calculated and plotted using TIBCO Spotfire software. […]

[6] = tested on: HCT116 cells; experiment: 72 h growth inhibition profiling (CellTiter-Glo cellular viability assay), parental HCT116; format: cell-based; settings: in HCT116
Protocol: as §1

[7] = tested on: PHF5A variant expressing HCT116 cells; experiment: 72 h growth inhibition profiling (CellTiter-Glo) of PHF5A WT- or Y36/V37 variant-expressing HCT116 cells; format: cell-based; settings: HCT116, 72 h
Protocol: as §2, §3

## CC[C@H](O)[C@@H](C)[C@H]1O[C@@H]1C[C@@](C)(O)/C=C/C=C(\C)[C@H]1OC(=O)C[C@H](O)CC[C@@](C)(O)[C@@H](OC(=O)N2CCN(C3CCCCCC3)CC2)/C=C/[C@@H]1C [E7107]
[1]; PHF5A WT cells
  dominant MCL1 splicing event (Sashimi plot of RNA-seq): IR was the dominant event
[1]; PHF5A Y36C cells
  dominant MCL1 splicing event (Sashimi plot of RNA-seq): mainly ES events were observed
[2]
  effect of SF3B1 R1074H on splicing-modulating and antiproliferative effects: almost completely abolished
[3]
  induction of MCL1 ES and IR events: ‘earlier' induction of MCL1 ES events than IR events at lower doses
[3]; increasing dosage
  MCL1-S production (ES events) in PHF5A-Y36C cells compared to WT: enhanced to a higher level
[4]
  resistance of resistant clones in growth inhibition profiling: SF3B1-R1074H mutation conferred the most robust resistance
[5]
  resistance phenotype on PHF5A Y36C over-expression: partial resistant phenotype
[6]; Homo sapiens, HCT-116
  GI50: 1.5 nM

## CC(C)C[C@H](NC(=O)[C@H](Cc1ccccc1)NC(=O)c1cnccn1)B(O)O [bortezomib, Bortezomib]
[4]
  resistance of resistant clones in growth inhibition profiling: did not affect the cell lines' sensitivity
[7]
  resistance in PHF5A Y36 variant expressing cells: resistance only occurred to the treatment with splicing modulators but not bortezomib

## COC(C(C)O)C(C)C1OC1(C)CC(C)C=CC=C(C)C1OC(CC(=O)O)CCC1C (stereo not drawn) [herboxidiene]
[4]
  resistance of resistant clones in growth inhibition profiling: PHF5A-Y36C mutation rendered more resistance
[6]; Homo sapiens, HCT-116
  GI50: 7.6 nM

## CO[C@]1(C)C[C@@]2(CO2)[C@H](O)[C@@H](/C=C/C(C)=C/C[C@@H]2O[C@H](C)[C@H](NC(=O)/C=C\[C@H](C)OC(C)=O)C[C@@H]2C)O1 [spliceostatin A]
[4]
  resistance of resistant clones in growth inhibition profiling: SF3B1-R1074H mutation also conferred better resistance
[6]
  GI50: 0.76 nM

## CNC(=O)OC(C)C=CC(=O)NC1CCC(CC=C(C)C=CC2CC3(CO3)CC(C)(C)O2)CC1 (stereo not drawn) [sudemycin D6]
[3]
  induction of MCL1 ES and IR events: IR events were not observed
[4]
  resistance of resistant clones in growth inhibition profiling: SF3B1-R1074H mutation also conferred better resistance
[6]
  GI50: 149 nM

## pladienolide B
[2]
  effect of SF3B1 R1074H on splicing-modulating and antiproliferative effects: almost completely abolished

— article PMC5458519, “Splicing modulators act at the branch point adenosine binding pocket defined by the PHF5A–SF3b complex” (Nature Communications, 2017)
